Measured values taken from ChEMBL document CHEMBL1201862, “PubChem BioAssay data set” (2004).
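Where inhibition never reached the appropriate level, the endpoint shown equals the highest concentration tested. Otherwise, values were interpolated linearly from a five-concentration, 48-hour dose response in 96-well plates. GI50 is the concentration that inhibits growth by half.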 Active and inactive are the calls of the source. Rule as the data show it: active = GI50 up to about 1.1 µM and inactive = higher.

Key:
Assay in all cases: growth of human tumour cells (NCI), 48 h
IGROV-1 = system: IGROV-1
SNB-75 = system: SNB-75
A498 = system: A498
HT-29 = system: HT-29
SF-295 = system: SF-295
MCF7 = system: MCF7
K562 = system: K562
OVCAR-3 = system: OVCAR-3
Malme-3M = system: Malme-3M
NCI-H23 = system: NCI-H23
A549 = system: A549
SF-268 = system: SF-268
SNB-19 = system: SNB-19
BT-549 = system: BT-549
KM12 = system: KM12
SK-MEL-2 = system: SK-MEL-2
HCC 2998 = system: HCC 2998
T47D = system: T47D
RXF 393 = system: RXF 393
UO-31 = system: UO-31

Measured: GI50

COn1cc(C=O)c2ccccc21
inactive: IGROV-1 > 62.8 µM | SNB-75 33.7 µM | A498 1.95 µM | HT-29 > 56.6 µM | SF-295 44.1 µM | MCF7 45.2 µM | K562 53.5 µM | OVCAR-3 36.6 µM | Malme-3M > 93.8 µM | NCI-H23 > 100 µM | A549 > 67 µM | SF-268 68.4 µM | SNB-19 69.7 µM | BT-549 > 100 µM | KM12 23.9 µM | SK-MEL-2 > 91.8 µM | HCC 2998 21.8 µM | T47D 65.8 µM | RXF 393 45.9 µM | UO-31 61.2 µM

CC12CCC(=O)C=C1CCC1C2C(O)CC2(C)C(c3csc(N)n3)CCC12.O=S(=O)(O)c1ccc(Br)cc1 (stereo not given)
inactive: IGROV-1 > 100 µM | SNB-75 > 100 µM | A498 > 100 µM | HT-29 > 100 µM | SF-295 > 100 µM | MCF7 > 100 µM | K562 > 100 µM | OVCAR-3 > 100 µM | Malme-3M > 100 µM | NCI-H23 > 100 µM | A549 > 100 µM | SF-268 > 100 µM | SNB-19 > 100 µM | BT-549 > 100 µM | KM12 > 100 µM | SK-MEL-2 > 100 µM | HCC 2998 > 100 µM | T47D > 100 µM | RXF 393 > 100 µM | UO-31 > 100 µM

Cc1cc(S(=O)(=O)Nc2cc(N)n[nH]2)c(SCc2nc(N)nc(N(C)C)n2)cc1Cl
inactive: IGROV-1 > 10 µM | SNB-75 > 10 µM | A498 > 10 µM | HT-29 > 10 µM | SF-295 > 10 µM | MCF7 > 10 µM | K562 > 10 µM | OVCAR-3 > 10 µM | Malme-3M > 10 µM | NCI-H23 > 10 µM | A549 > 10 µM | SF-268 > 10 µM | SNB-19 > 10 µM | BT-549 > 10 µM | KM12 > 10 µM | SK-MEL-2 > 10 µM | HCC 2998 > 10 µM | T47D > 10 µM | RXF 393 > 10 µM | UO-31 > 10 µM

CCOC(=O)c1cc(Br)c(-c2onc(C)c2Br)[nH]1
inactive: IGROV-1 40.2 µM | SNB-75 > 100 µM | A498 48.2 µM | HT-29 > 100 µM | SF-295 43.1 µM | MCF7 > 100 µM | K562 > 100 µM | OVCAR-3 > 100 µM | Malme-3M 34.4 µM | NCI-H23 49.3 µM | A549 56.1 µM | SF-268 41.4 µM | SNB-19 24.9 µM | BT-549 43 µM | KM12 > 100 µM | SK-MEL-2 80.7 µM | HCC 2998 53.7 µM | T47D > 100 µM | RXF 393 16.7 µM | UO-31 > 100 µM

Cc1cc[n+]2c(c1)-c1cc(C)cc[n+]1CC2
inactive: IGROV-1 51.2 µM | SNB-75 > 100 µM | A498 > 100 µM | HT-29 34.7 µM | SF-295 > 100 µM | MCF7 > 100 µM | K562 > 100 µM | OVCAR-3 45.2 µM | Malme-3M 99.5 µM | NCI-H23 84.5 µM | A549 > 100 µM | SF-268 > 100 µM | SNB-19 > 100 µM | BT-549 > 100 µM | KM12 > 100 µM | SK-MEL-2 > 100 µM | HCC 2998 > 100 µM | T47D > 100 µM | RXF 393 > 100 µM | UO-31 > 100 µM

CC(=N\N=C\c1ccccn1)/C(C)=N/N=C(C)/C(C)=N/N=C(C)/C(C)=N/N=C/c1ccccn1
inactive: IGROV-1 > 100 µM | SNB-75 > 100 µM | A498 > 100 µM | HT-29 > 100 µM | SF-295 > 100 µM | MCF7 > 100 µM | K562 > 100 µM | OVCAR-3 > 100 µM | Malme-3M > 100 µM | NCI-H23 > 100 µM | A549 > 100 µM | SF-268 > 100 µM | SNB-19 > 100 µM | BT-549 > 100 µM | KM12 > 100 µM | SK-MEL-2 > 100 µM | HCC 2998 > 100 µM | T47D > 100 µM | RXF 393 > 100 µM | UO-31 > 100 µM
